Measurements: patent US11434242B2, “Dopamine-b-hydroxylase inhibitors” (BIAL-PORTELA & Cª, S.A., priority 2017, dated 2022)

Molecular target: T1, Dopamine beta hydroxylase (Homo sapiens, UniProt P09172)
T1 construct: 125 μl of plasma; tissue Instituto Português do Sangue Transplantação; host or cells: human plasma from healthy donors
T1 sequence (P09172 40-617 limits assumed): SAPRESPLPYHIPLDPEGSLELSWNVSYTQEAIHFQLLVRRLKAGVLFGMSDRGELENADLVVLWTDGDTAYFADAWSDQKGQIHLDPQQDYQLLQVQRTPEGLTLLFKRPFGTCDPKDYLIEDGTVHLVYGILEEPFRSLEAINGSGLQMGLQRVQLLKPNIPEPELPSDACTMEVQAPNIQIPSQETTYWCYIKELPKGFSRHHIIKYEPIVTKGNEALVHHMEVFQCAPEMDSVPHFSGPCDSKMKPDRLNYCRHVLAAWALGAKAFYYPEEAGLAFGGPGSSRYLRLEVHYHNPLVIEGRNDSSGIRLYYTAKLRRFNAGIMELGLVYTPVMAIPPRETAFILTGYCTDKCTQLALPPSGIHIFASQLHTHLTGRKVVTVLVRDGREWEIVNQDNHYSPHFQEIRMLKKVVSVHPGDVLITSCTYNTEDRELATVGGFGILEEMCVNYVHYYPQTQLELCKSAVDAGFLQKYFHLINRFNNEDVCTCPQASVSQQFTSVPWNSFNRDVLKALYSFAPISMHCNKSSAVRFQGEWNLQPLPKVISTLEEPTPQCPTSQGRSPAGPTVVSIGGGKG
Assay: Dopamine beta hydroxylase activity in human plasma
Assay type: biochemical
Settings: for Plasma (0.01 μM), activity in % of control: inhibitor 0.01 μM; for Plasma (0.1 μM), activity in % of control: inhibitor 0.1 μM
Procedure, shortened: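 Healthy-donor human plasma pre-incubated 10 min at 37° C with compound at final 10, 100 or 1000 nM in pH 5.0 acetate buffer with ascorbate, fumarate, pargyline, N-ethylmaleimide, catalase and copper sulfate. Tyramine substrate then added for 45 min; octopamine formed was isolated by SCX cartridge, periodate-converted and read at 330 nm; activity given as % control.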

Plasma (0.01 μM), activity in % of control | Plasma (0.1 μM), activity in % of control | Plasma (1 μM), activity in % of control (inhibitor 1 μM) | Compound
101.8 % of control | 79.4 % of control |  | O=C(Cc1[nH]c(=S)n2c1C[C@H](c1c(F)c(F)cc(F)c1F)C2)N[C@@H]1CCCOC1 [Example 386, N—((R)-tetrahydro-2H-pyran-3-yl)-2-((R)-3-thioxo-6-(2,3,5,6-tetrafluorophenyl)-2,5,6,7-tetrahydro-3H-pyrrolo[1,2-c]imidazol-1-yl)acetamide]
73.1 % of control | 26.8 % of control |  | O=C(Cc1[nH]c(=S)n2c1C[C@@H](c1c(F)ccc(Br)c1F)C2)N1CCOCC1 [Example 140, (S)-2-(6-(3-bromo-2,6-difluorophenyl)-3-thioxo-2,5,6,7-tetrahydro-3H-pyrrolo[1,2-c]imidazol-1-yl)-1-morpholinoethan-1-one]
92.1 % of control | 47.6 % of control |  | Cn1c(CC(=O)NC2COC2)c2n(c1=S)C[C@@H](c1c(F)c(F)cc(F)c1F)C2 [Example 394, (R)-2-(2-methyl-6-(2,3,5,6-tetrafluorophenyl)-3-thioxo-2,5,6,7-tetrahydro-3H-pyrrolo[1,2-c]imidazol-1-yl)-N-(oxetan-3-yl)acetamide]
65.9 % of control | 22.3 % of control |  | Cn1c(CC(=O)N2CCCC2)c2n(c1=S)C[C@@]1(c3cc(Br)ccc3F)C[C@@H]21 [Example 310, 2-((5aS,6aR)-5a-(5-bromo-2-fluorophenyl)-2-methyl-3-thioxo-2,3,5,5a,6,6a-hexahydrocyclopropa[3,4]pyrrolo[1,2-c]imidazol-1-yl)-1-(pyrrolidin-1-yl)ethan-1-one]
66.1 % of control | 12.8 % of control |  | CN(C(=O)Cc1c2n(c(=S)n1C)C[C@H](c1c(F)ccc(Cl)c1F)C2)C1CCOCC1 [Example 373, (S)-2-(6-(3-chloro-2,6-difluorophenyl)-2-methyl-3-thioxo-2,5,6,7-tetrahydro-3H-pyrrolo[1,2-c]imidazol-1-yl)-N-methyl-N-(tetrahydro-2H-pyran-4-yl)acetamide]
68.9 % of control | 18.3 % of control |  | Fc1ccc(Br)c(F)c1[C@@H]1Cc2c(CCNC3CCC3)[nH]c(=S)n2C1 [Example 181, (S)-6-(3-bromo-2,6-difluorophenyl)-1-(2-(cyclobutylamino)ethyl)-2,5,6,7-tetrahydro-3H-pyrrolo[1,2-c]imidazole-3-thione]
62.3 % of control | 9.0 % of control |  | [2H]C([2H])([2H])n1c(CC(=O)N[C@@H]2CCOC2)c2n(c1=S)C[C@@]1(c3cc(Br)ccc3F)C[C@@H]21 [Example 465, 2-((5aS,6aR)-5a-(5-bromo-2-fluorophenyl)-2-(methyl-d)-3-thioxo-2,3,5,5a,6,6a-hexahydrocyclopropa[3,4]pyrrolo[1,2-c]imidazol-1-yl)-N—((R)-tetrahydrofuran-3-yl)acetamide]
97.4 % of control | 50.0 % of control |  | CN(C(=O)Cc1c2n(c(=S)n1C)C[C@@H](c1c(F)ccc(F)c1F)C2)C1CCOC1 (stereo partly drawn) [Example 374, N-methyl-2-((R)-2-methyl-3-thioxo-6-(2,3,6-trifluorophenyl)-2,5,6,7-tetrahydro-3H-pyrrolo[1,2-c]imidazol-1-yl)-N-(tetrahydrofuran-3-yl)acetamide]
 | 32.1 % of control | 1.0 % of control | O=C(Cc1[nH]c(=S)n2c1C[C@@H](c1c(F)ccc(Br)c1F)C2)NCCO [Example 93, (S)-2-(6-(3-bromo-2,6-difluorophenyl)-3-thioxo-2,5,6,7-tetrahydro-3H-pyrrolo[1,2-c]imidazol-1-yl)-N-(2-hydroxyethyl)acetamide]
